{
  "source": "patent US20260256771A1",
  "about": "“GALUNISERTIB FOR USE IN THE TREATMENT OF ANDROGENIC ALOPECIA” (SAÚDE VIÁVEL, S.A., priority 2022, published 2026)",
  "key": {"[1]": {"test_system": "β-catenin", "test": "Immunohistochemistry of cryo-sectioned HFOCs: β-catenin", "assay_type": "cell-based, human", "details": "DP adjacent epithelial compartment; Galunisertib 48 h vs untreated", "text": "(§1) Hair growth percentages is normalized to day 0.\nFIG. 6. Galunisertib improves the WNT signaling in the bulb epithelial compartment. a) Representative IHC images of tissue sections of HFOCs with and without Galunisertib and stained for LEF1 (red) and β-catenin (green). Nuclei were counterstained with DAPI (blue). Scale bar, 100 μm. b,e) Adjusted intensity levels of LEF1 and β-catenin per DP and HB (bulb epithelium) areas, as measured in tissue sections from HFOCs with and without Galunisertib. All values are mean±SD of HFOCs established from n=4 donors (n>8 HFs per condition). ns p≥0.05, *p≤0.05 by unpaired t-test.\n(§2) For immunohistochemistry, 2-day HFOCs are used for immunohistochemistry analysis. Briefly, HFs were embedded on a drop of OCT and stored at −80° C. 8 μm cryosections are air-dried and fixed in 4% PFA (for TGFβ2, cleavage Caspase 3, p-SMAD2 and KI67 immunostainings) or cold acetone (for LEF1 and β-catenin immunostaining). Following 2×5 min rinse with PBS, microsections are permeabilized 2× for 10 min with PBS+0.3% Triton X 100 (PBS-T) and then blocked with PBS+10% fetal bovine serum (FBS) for 1 hour at room temperature. Antibodies are diluted in PBS-T+1% FBS and incubation done overnight at 4° C. […]"}, "[2]": {"test_system": "p-SMAD2", "test": "Immunohistochemistry of cryo-sectioned HFOCs: p-SMAD2", "assay_type": "cell-based, human", "text": "as §1\nFIG. 4. Galunisertib inhibits TGFβ2 paracrine signaling in the bulb epithelial compartment. a) Representative Immunohistochemistry (IHC) images of tissue sections of HFOCs untreated and treated with Galunisertib as indicated and stained for TGFβ2 and p-SMAD2. In the upper left frame is exemplified how the dermal papilla (DP) and adjacent bulb epithelial compartment (HB) regions were delineated for quantitative analyses shown in b-e. Nuclei were counterstained with DAPI. Scale bar, 100 μm. b-e) Adjusted intensity levels of TGFβ2 and p-SMAD2 per DP and HB areas as measured in tissue sections from untreated and Galunisertib-treated HFOCs. Values are mean±SD of HFOCs established from n=4 donors (n>9 HFs per condition). ns p≥0.05, *p≤0.05 by unpaired t-test.\nas §2, with “temperature.” for “temperature. Antibodies are diluted in PBS-T+1% FBS and incubation done overnight at 4° C.”"}, "[3]": {"test_system": "C57BL/6 depilated male mice", "test": "Hair growth in depilated mice under topical treatment (photographs, trichoscopy)", "assay_type": "in vivo, mouse", "details": "for hair growth in magnified photographs of depilated areas: day 9, vs vehicle control", "method": "FIG. 7. Galunisertib induces hair growth in C57BL/6J mice. a) Mouse treatment scheme. 7-week-old C57BL/6J mice were depilated (day −2) and 2 days later (day 0) started being treated with vehicle (70% ethanol), galunisertib (10 μM and 100 μM) or 3% minoxidil for 21 non-continuous days. b) Photographs of C57BL/6J mice treated with vehicle (control), 10 μM and 100 μM galunisertib or 3% minoxidil at days 0, 5, 9 and 14. c) Magnified photographs of the depilation site of C57BL/6J mice treated with vehicle (Ctr), galunisertib (10 and 100 μM) or minoxidil at days 7 and 9. d) Trichoscopy images of depilated regions at days 8 and 10. N≥3 animals were used per timepoint per condition for image and skin collection; e) Mass spectrometry analysis of skin biopsies retrieved at day 14 from animals treated with 10 μM and 100 μM galunisertib. Values are mean±SD of n=3 animals per condition.\nMice are six-week-old male C57BL/6J mice purchased from the Charles River Laboratories. The animals are housed and allowed to adapt to the laboratory environment for one week before experiments start. Animals are maintained under a 12 h light/dark cycle and fed with regular rodent's chow and tap water ad libitum, at the i3S animal facility.\nFor depilation and treatments in order to synchronize hair growth cycle in mice, anagen is induced by depilation. Seven-week-old male C57BL/6J mice are anesthetized using 3% isoflurane and their back is shaved using a hair shaver. Hair is then further depilated using cold wax bands (Veet Minima). After the depilation, the excess of wax is removed with mineral oil, and a skin protector spray, Douxo Calm Sérum, is applied, followed by Cavilon, a barrier film spray. To allow for skin to fully recover, topical treatments started two days later. During the procedures mice are under volatile anesthesia (3% isoflurane) and are kept warmed. Mice are photographed with a camara or a trichoscope (Dino-Lite), before topical application of galunisertib (10 μM and 100 μM), minoxidil (3%) or vehicle (70% ethanol). Topical applications are performed using a syringe in order to cover the depilated area only. Hair growth is followed for 21 days, although telogen is apparent at day 18 post-treatment."}},
  "data": [
    {"smiles": "Cc1cccc(-c2nn3c(c2-c2ccnc4ccc(C(N)=O)cc24)CCC3)n1", "note": "[Galunisertib]", "values": [
      {"measurement": "β-catenin intensity levels", "setting": "[1]", "result": "significantly enhances"},
      {"measurement": "p-SMAD2 fluorescence intensity levels at the bulb epithelial compartment", "setting": "[2]; bulb epithelial compartment surrounding the DP, Galunisertib 48 h vs untreated", "result": "decreased levels"},
      {"measurement": "p-SMAD2 in DP (fluorescence intensity)", "setting": "[2]; dermal papilla, HFOCs with or without Galunisertib for 48 h", "result": "not significantly reduced"},
      {"measurement": "adverse side effects", "setting": "[3]; mice under topical galunisertib (10 and 100 μM)", "result": "no apparent adverse side effects"},
      {"measurement": "hair growth in magnified photographs of depilated areas", "setting": "[3]; topical 10 μM galunisertib", "result": "marked improvement of hair growth"},
      {"measurement": "hair growth in magnified photographs of depilated areas", "setting": "[3]; topical 100 μM galunisertib, ranked after 10 μM galunisertib", "result": "marked improvement of hair growth"},
      {"measurement": "hair density by trichoscopy examination of depilated regions", "setting": "[3]; topical galunisertib, in particular 10 μM, days 8 and 10", "result": "increased hair density"},
      {"measurement": "macroscopic assessment of hair growth: darkness of depilated area (hair density)", "setting": "[3]; topical, galunisertib 10 and 100 μM, minoxidil 3%, vs. control mice, day 5 to day 14", "result": "consistently darker"}
    ]}
  ]
}
